Measured values published in ChEMBL document CHEMBL3112413, “Novel coumarin-dihydropyrazole thio-ethanone derivatives: design, synthesis and anticancer activity” (Eur J Med Chem, 2014).
Active and inactive are the calls of the source. No cut-off for these calls is given here.

What was measured:
[1] = target: DNA polymerase I, thermostable (Thermus aquaticus) (UniProt P19821); test: Inhibition of Thermus aquaticus Taq polymerase at IC50 for telomerase inhibition after 15 mins using ethidium bromide staining by 2% agarose gel electrophoresis analysis
DNA polymerase I, thermostable (Thermus aquaticus), sequence (P19821 whole entry): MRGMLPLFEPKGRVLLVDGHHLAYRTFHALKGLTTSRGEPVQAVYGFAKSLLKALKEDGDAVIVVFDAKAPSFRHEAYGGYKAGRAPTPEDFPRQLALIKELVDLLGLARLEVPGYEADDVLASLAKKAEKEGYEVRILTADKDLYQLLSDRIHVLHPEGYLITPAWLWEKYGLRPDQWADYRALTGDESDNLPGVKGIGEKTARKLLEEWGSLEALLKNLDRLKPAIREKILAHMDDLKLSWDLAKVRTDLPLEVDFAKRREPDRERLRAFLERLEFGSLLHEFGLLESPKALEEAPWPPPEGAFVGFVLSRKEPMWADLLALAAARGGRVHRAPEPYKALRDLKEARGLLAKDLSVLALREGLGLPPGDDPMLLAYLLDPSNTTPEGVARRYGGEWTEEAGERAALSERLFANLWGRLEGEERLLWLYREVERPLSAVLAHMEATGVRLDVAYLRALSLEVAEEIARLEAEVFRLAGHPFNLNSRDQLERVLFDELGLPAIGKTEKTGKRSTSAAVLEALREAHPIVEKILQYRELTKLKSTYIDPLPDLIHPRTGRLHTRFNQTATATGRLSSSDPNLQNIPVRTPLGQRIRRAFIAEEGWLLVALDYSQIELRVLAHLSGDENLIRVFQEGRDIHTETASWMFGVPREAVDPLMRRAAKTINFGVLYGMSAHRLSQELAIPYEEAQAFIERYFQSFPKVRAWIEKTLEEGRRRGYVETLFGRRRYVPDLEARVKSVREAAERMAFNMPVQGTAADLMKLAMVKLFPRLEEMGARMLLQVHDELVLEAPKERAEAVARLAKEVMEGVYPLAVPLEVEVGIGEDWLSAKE

[2] = target: Telomerase reverse transcriptase (Homo sapiens, UniProt O14746); test: Inhibition of telomerase in human MGC803 cell extracts after 24 hrs by TRAP-PCR-ELISA; design: species or system MGC-803
Telomerase reverse transcriptase, sequence (O14746 whole entry): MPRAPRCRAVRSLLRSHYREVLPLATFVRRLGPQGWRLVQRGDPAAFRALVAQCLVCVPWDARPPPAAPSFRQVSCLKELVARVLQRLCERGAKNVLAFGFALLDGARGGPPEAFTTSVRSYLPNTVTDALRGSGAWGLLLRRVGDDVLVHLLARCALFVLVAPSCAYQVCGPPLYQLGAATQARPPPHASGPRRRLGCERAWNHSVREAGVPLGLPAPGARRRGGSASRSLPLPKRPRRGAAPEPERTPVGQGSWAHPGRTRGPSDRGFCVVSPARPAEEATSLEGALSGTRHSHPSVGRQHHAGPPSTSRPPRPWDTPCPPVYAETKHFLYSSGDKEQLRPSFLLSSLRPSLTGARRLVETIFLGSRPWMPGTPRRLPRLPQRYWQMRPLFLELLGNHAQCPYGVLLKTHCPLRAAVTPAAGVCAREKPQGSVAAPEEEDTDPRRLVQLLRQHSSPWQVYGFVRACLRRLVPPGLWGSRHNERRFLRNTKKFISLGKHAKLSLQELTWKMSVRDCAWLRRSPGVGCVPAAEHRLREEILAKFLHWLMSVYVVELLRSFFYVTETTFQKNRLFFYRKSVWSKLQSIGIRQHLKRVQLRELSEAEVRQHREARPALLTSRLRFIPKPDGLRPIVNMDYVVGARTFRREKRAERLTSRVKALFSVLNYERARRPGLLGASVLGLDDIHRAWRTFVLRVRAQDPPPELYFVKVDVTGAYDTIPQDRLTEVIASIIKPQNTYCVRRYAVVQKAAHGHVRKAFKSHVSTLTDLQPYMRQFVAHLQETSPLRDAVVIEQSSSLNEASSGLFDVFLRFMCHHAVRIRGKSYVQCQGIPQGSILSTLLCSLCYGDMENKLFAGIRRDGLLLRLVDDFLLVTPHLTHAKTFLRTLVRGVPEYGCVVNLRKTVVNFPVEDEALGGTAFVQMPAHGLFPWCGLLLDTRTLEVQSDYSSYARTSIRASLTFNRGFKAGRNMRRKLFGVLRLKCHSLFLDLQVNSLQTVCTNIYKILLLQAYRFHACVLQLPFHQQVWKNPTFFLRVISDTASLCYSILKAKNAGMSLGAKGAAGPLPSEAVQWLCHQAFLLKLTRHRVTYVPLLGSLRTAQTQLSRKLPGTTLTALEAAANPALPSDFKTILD

[3] = test system: Bcap37; test: Cytotoxicity against human Bcap37 cells after 48 hrs by MTT assay; assay type: functional, cell-based; settings: Bcap37, 48 h
[4] = Cytotoxicity against human SGC7901 cells after 48 hrs by MTT assay; assay type: functional, cell-based; settings: SGC-7901, 48 h
[5] = test system: MGC-803; test: Cytotoxicity against human MGC803 cells after 48 hrs by MTT assay; assay type: functional, cell-based; settings: MGC-803, 48 h
[6] = test system: HepG2; test: Cytotoxicity against human HepG2 cells after 48 hrs by MTT assay; assay type: functional, cell-based; settings: HepG2, 48 h
[7] = test system: MGC-803; test: Cell cycle arrest in human MGC803 cells at 0.92 uM after 48 hrs using propidium iodide staining after 48 hrs by flow cytometer relative to control; assay type: functional
[8] = test system: MGC-803; test: Cell cycle arrest in human MGC803 cells assessed as accumulation at S phase at 25 uM after 48 hrs using propidium iodide staining after 48 hrs by flow cytometer relative to control; assay type: functional
[9] = test system: MGC-803; test: Cell cycle arrest in human MGC803 cells assessed as accumulation at G0/G1 phase at 25 uM after 48 hrs using propidium iodide staining after 48 hrs by flow cytometer relative to control; assay type: functional
[10] = test system: MGC-803; test: Cell cycle arrest in human MGC803 cells assessed as accumulation at G2/M phase at 25 uM after 48 hrs using propidium iodide staining after 48 hrs by flow cytometer relative to control; assay type: functional
[11] = test system: MGC-803; test: Cell cycle arrest in human MGC803 cells assessed as accumulation at G0/G1 phase at […] uM after 48 hrs using propidium iodide staining after 48 hrs by flow cytometer relative to control; assay type: functional
[12] = test system: MGC-803; test: Cell cycle arrest in human MGC803 cells assessed as accumulation at G2/M phase at […] uM after 48 hrs using propidium iodide staining after 48 hrs by flow cytometer relative to control; assay type: functional
[13] = test system: MGC-803; test: Cell cycle arrest in human MGC803 cells assessed as accumulation at S phase at […] uM after 48 hrs using propidium iodide staining after 48 hrs by flow cytometer relative to control; assay type: functional

Structure (SMILES)	IC50 [2]	IC50 [3]	IC50 [4]	IC50 [5]	IC50 [6]	further results
CCCCSCC(=O)N1N=C(c2cc3ccccc3oc2=O)C[C@@H]1c1ccccc1C(F)(F)F	2 µM	9.73 µM	4.42 µM	3.14 µM	5.01 µM	inhibition [1]: inactive
O=C(CSc1ccc(Br)cc1)N1N=C(c2cc3ccccc3oc2=O)C[C@@H]1c1ccccc1	–	13 µM	14.3 µM	16.8 µM	14.5 µM	–
CC[n+]1c(-c2ccccc2)c2cc(N)ccc2c2ccc(N)cc21 [HOMIDIUM BROMIDE]	2.1 µM	–	–	–	–	–
CCCCSCC(=O)N1N=C(c2cc3ccccc3oc2=O)C[C@@H]1c1ccccc1	–	9.7 µM	7.3 µM	12.8 µM	6.64 µM	–
O=C(CSc1ccccc1)N1N=C(c2cc3ccccc3oc2=O)C[C@@H]1c1ccccc1	–	14.8 µM	20.3 µM	22.8 µM	16.3 µM	–
O=C(CSc1ccc(Br)cc1)N1N=C(c2cc3ccccc3oc2=O)C[C@@H]1c1ccccc1C(F)(F)F	–	10.3 µM	14.7 µM	21.3 µM	17.9 µM	–
CCCCSCC(=O)N1N=C(c2cc3ccccc3oc2=O)C[C@@H]1c1ccc(C(F)(F)F)cc1	0.92 µM	3.55 µM	2.91 µM	2.35 µM	8.68 µM	inhibition [1]: inactive; Activity [7]: 66%
O=C(CSc1ccc(Br)cc1)N1N=C(c2cc3ccccc3oc2=O)C[C@@H]1c1ccc(C(F)(F)F)cc1	25.1 µM	7.99 µM	12.1 µM	10.8 µM	12.7 µM	inhibition [1]: inactive
O=C(CSc1ncccn1)N1N=C(c2cc3ccccc3oc2=O)C[C@@H]1c1ccc(C(F)(F)F)cc1	–	3.77 µM	4.39 µM	2.89 µM	4.75 µM	–
O=C(CSCc1ccco1)N1N=C(c2cc3ccccc3oc2=O)C[C@@H]1c1ccc(C(F)(F)F)cc1	–	12 µM	9.74 µM	15.2 µM	11.2 µM	–
O=C(CSc1ncccn1)N1N=C(c2cc3ccccc3oc2=O)C[C@@H]1c1ccccc1C(F)(F)F	8.89 µM	4.09 µM	4.97 µM	4 µM	6.54 µM	inhibition [1]: inactive
CC1=NN(C(=O)CSc2ccccc2)[C@@H](c2cc(Br)cc(Br)c2O)C1	–	13.1 µM	24.1 µM	12.7 µM	10.3 µM	–
O=c1[nH]cc(F)c(=O)[nH]1 [FLUOROURACIL]	–	5.58 µM	7.37 µM	3.68 µM	4.35 µM	–
CC1=NN(C(=O)CSc2ccc(Br)cc2)[C@@H](c2cc(Br)cc(Br)c2O)C1	–	3.2 µM	8.21 µM	12.8 µM	6.87 µM	–
C/C(=C\C(=O)Nc1ccccc1C(=O)O)c1ccc2ccccc2c1	0.28 µM	–	–	–	–	–
O=C(CSc1ccc([N+](=O)[O-])cc1)N1N=C(c2cc3ccccc3oc2=O)C[C@@H]1c1ccc(C(F)(F)F)cc1	–	16.5 µM	8.51 µM	10.2 µM	7.76 µM	–
O=c1cc(N2CCOCC2)oc2c(-c3ccccc3)cccc12 [LY-294002]	–	–	–	–	–	Activity [8]: 27.1%; Activity [9]: 50.5%; Activity [10]: 22.4%
COC(=O)CSCC(=O)N1N=C(C)C[C@@H]1c1cc(Br)cc(Br)c1O	1.19 µM	3.7 µM	3.3 µM	2.27 µM	2.95 µM	inhibition [1]: inactive
O=C(CSCc1ccco1)N1N=C(c2cc3ccccc3oc2=O)C[C@@H]1c1ccccc1C(F)(F)F	–	10.3 µM	10.2 µM	15.7 µM	18 µM	–
CC1=NN(C(=O)CSc2ccccn2)[C@@H](c2cc(Br)cc(Br)c2O)C1	–	16.7 µM	10.3 µM	12.3 µM	24.7 µM	–
CC1=NN(C(=O)CSc2nc3ccccc3s2)[C@@H](c2cc(Br)cc(Br)c2O)C1	4.65 µM	9.7 µM	12.3 µM	7.8 µM	8.7 µM	–
CCCSCC(=O)N1N=C(C)C[C@@H]1c1cc(Br)cc(Br)c1O	1.04 µM	3.24 µM	2.3 µM	2.97 µM	4 µM	inhibition [1]: inactive; Activity [11]: 47.2%; Activity [12]: 25.2%; Activity [13]: 30.1%
O=C(CSc1ccc([N+](=O)[O-])cc1)N1N=C(c2cc3ccccc3oc2=O)C[C@@H]1c1ccccc1C(F)(F)F	–	10.8 µM	9.77 µM	7.58 µM	7.7 µM	–
